{
  "source": "patent US7189753B1",
  "about": "“Preemptive prophylaxis of migraine” (priority 1997, dated 2007)",
  "test_system": "onset of the headache phase of migraine",
  "test": "Open label pilot study of oral naratriptan 2.5 mg taken as a single dose during prodrome",
  "assay_type": "in vivo, human",
  "experimental": "An open label pilot study was conducted to determine whether oral naratriptan 2.5 mg taken as a single dose during the prodrome could prevent the onset of the headache phase of migraine. […] Twenty patients recruited at 4 study sites were administered oral naratriptan 2.5 mg after onset of prodrome symptoms for a total of 63 prodromes. […] The pain severity of headaches that were not prevented were reduced as compared to baseline pain severity of migraine attacks not treated with naratriptan. An additional 13 patients recruited at a fifth site were also treated. […] Upon review, all 13 patients reported onset of headache within 3 hours after administration of naratriptan. Eighty-seven percent of prodromes in this patient group were treated ≦2 hours before onset of headache.",
  "data": [
    {"smiles": "CNS(=O)(=O)CCc1ccc2[nH]cc(C3CCN(C)CC3)c2c1.Cl", "note": "[naratriptan, N-methyl-3-(1-methyl-4-piperidinyl)-1H-indole-5-ethanesulfonamide monohydrochloride]", "values": [
      {"measurement": "headaches not prevented that occurred ≦2 hours after treatment", "setting": "4 sites, 15 of the 25 headaches", "value": 60, "unit": "%"},
      {"measurement": "pain severity of headaches that were not prevented, compared to baseline pain severity of attacks not treated with naratriptan", "setting": "4 study sites, oral 2.5 mg", "value": "reduced"},
      {"measurement": "treated prodromes that did not progress to headache", "setting": "20 patients at 4 study sites, 63 prodromes, oral 2.5 mg after onset of prodrome symptoms", "value": "Sixty"},
      {"measurement": "patients reporting headache following treatment", "setting": "additional 13 patients at a fifth site", "value": "All 13 patients reported headache following each treatment"},
      {"measurement": "prodromes treated ≦2 hours before onset of headache", "setting": "fifth site, 13 patients", "value": "Eighty-seven"},
      {"measurement": "onset of headache after administration", "setting": "fifth site, all 13 patients", "value": "≤ 3", "unit": "h"},
      {"measurement": "preventing the onset of the headache phase of migraine", "setting": "oral 2.5 mg single dose during prodrome, open label", "value": "effective in preventing the onset of the headache phase of migraine"}
    ]}
  ]
}
